Data as given in article PMC6237192 (European journal of medicinal chemistry, 2018).

Columns and labels:
[1] = system: MT4 cells; assay: Cytotoxicity; assay type: cell-based, human; settings: ratio of CC50 to IC50
[2] = system: HIV-1NL4-3 (subtype B); assay: Antiviral activity in MT-4 human T-lymphoid cells exposed to HIV-1NL4-3; assay type: cell-based; settings: Human immunodeficiency virus 1, MT4, in Homo sapiens

Structure (SMILES) | Selectivity Index [1] | IC50 [2]
COc1ccc(S(=O)(=O)N(CC(C)C)C[C@@H](O)[C@H](Cc2ccccc2)NC(=O)c2ccc3c(c2)[C@@H](NC(=O)OC(C)(C)C)CCS3(=O)=O)cc1 [Inhibitor 4e, tert-Butyl ((S)-6-(((2S,3R)-3-hydroxy-4-((N-isobutyl-4-methoxyphenyl)sulfonamido)-1-phenylbutan-2-yl)carbamoyl)-1,1-dioxidothiochroman-4-yl)carbamate] | >2128 | –
CC(C)CN(C[C@@H](O)[C@H](Cc1ccccc1)NC(=O)O[C@H]1CCOC1)S(=O)(=O)c1ccc(N)cc1 [amprenavir] | – | 30 nM
